Earlier results, collected in PMC2410273, “Pharmacokinetic behaviour of the chemoprotectants BNP7787 and mesna after an i.v. bolus injection in rats” (British Journal of Cancer, 2004).

Tested on: cisplatin-induced nephrotoxicity
Design: method as in Hausheer et al, 1998
Conditions: rats, ref Hausheer et al, 1998, cited from earlier work

O=S(=O)([O-])CCSSCCS(=O)(=O)[O-].[Na+].[Na+] [BNP7787, disodium 2,2′-dithio-bis-ethane sulphonate]
cisplatin dose (mg kg^−1) tolerated when preceded by BNP7787 (750 or 1500 mg kg^−1 BNP7787 i.v.): could be safely increased from 6 to 9 | protection against cisplatin-induced nephrotoxicity (plasma creatinine, BUN, renal histopathology): completely protected
